Key:
[1] = system: platelet-rich human plasma; platelet aggregation induced by collagen; test: Platelet aggregation (platelet-rich human plasma) induced in vitro by collagen; format: cell-based; conditions: platelet-rich human plasma, 300,000 platelets/cm^2, 10.0 μg/ml of collagen; read-out: IC50, inductor: collagen
Method: (§1) Study of the Effects on the Platelet Aggregation (Platelet-Rich Human Plasma) Induced in Vitro By: ADP, Collagen or Arachidonic Acid Blood samples from volunteer donors are treated and adjusted to a platelet concentration of 300,000/cm^2 and then incubated with different concentrations of the test products. Aggregation is induced by 2.0 μg/ml of ADP or by 10.0 μg/ml of collagen. The measurements are made using a Bryston-type aggregometer--or CHRONOLOG. The changes in optical density are noted and the values of the concentrations which cause a 50% inhibition are calculated.

[2] = system: isolated guinea-pig intestine; test: Antagonistic effects on isolated guinea-pig intestine (MAGNUS); conditions: 0.1 μg/ml
platelet aggregation = test: In vitro inhibition of platelet aggregation (BORN's method), induced by collagen or ADP; format: cell-based, animal and human; conditions: 100 μg/ml, aspirin as reference
Method: In vitro inhibition of platelet aggregation The inhibition of platelet aggregation is measured in vitro by BORN's method (Nature 4832, 927 (1962)), the aggregation being induced by collagen or ADP. […] The aggregation can also be induced in vitro by serotonin, arachidonic acid and norepinephrine. Furthermore, this inhibitory effect was observed on platelet-rich plasma (PRP) of animal origin and human origin.

[3] = system: platelet-rich human plasma; platelet aggregation induced by ADP; test: Platelet aggregation (platelet-rich human plasma) induced in vitro by ADP; format: cell-based; conditions: platelet-rich human plasma, 300,000 platelets/cm^2, 2.0 μg/ml of ADP; read-out: IC50, inductor: ADP
Method: as §1

Compound	IC50 [1]	inhibitory effect on isolated guinea-pig intestine [2]	inhibition of platelet aggregation compared with aspirin (platelet aggregation)	IC50 [3]
CCN(CC)CCON=C1CC(=NOCCN(CC)CC)c2ccccc2-c2ccccc21.Cl.Cl [Example 15, 5,7-Bis(2-Diethylaminoethoxyimino)-6,7-Dihydro-(5H)-Dibenzo[a,c]Cycloheptene Dihydrochloride]	24 µg/mL	still substantial	comparable or even superior to aspirin	10 µg/mL
CCN(CC)CCON=C1CC(=NOCCN(CC)CC)c2ccccc2-c2ccccc21.O=C(O)/C=C\C(=O)O.O=C(O)/C=C\C(=O)O [Example 16, 5,7-Bis(2-Diethylaminoethoxyimino)-6,7-Dihydro-(5H)-Dibenzo[a,c]Cycloheptene Dimaleate]	22 µg/mL	still substantial	comparable or even superior to aspirin	16 µg/mL
CCN(CC)CCON=C1CC(=NOCCN(CC)CC)c2ccccc2-c2ccccc21.O=C(O)C(O)C(O)C(=O)O.O=C(O)C(O)C(O)C(=O)O [Example 17, 5,7-Bis(2-Diethylaminoethoxyimino)-6,7-Dihydro-(5H)-Dibenzo[a,c]Cycloheptene Ditartrate]	16 µg/mL	still substantial	comparable or even superior to aspirin	10 µg/mL
Cl.Cl.NCCON=C1CC(=NOCCN)c2ccccc2-c2ccccc21 [Example 18, 5,7-Bis(2-Aminoethoxyimino)-6,7-Dihydro-(5H)-Dibenzo[a,c]Cycloheptene Dihydrochloride]	50 µg/mL	still substantial	comparable or even superior to aspirin	40 µg/mL
Cl.Cl.NCCCON=C1CC(=NOCCCN)c2ccccc2-c2ccccc21 [Example 19, 5,7-Bis(3-Aminopropoxyimino)-6,7-Dihydro-(5H)-Dibenzo[a,c]Cycloheptene Dihydrochloride]	175 µg/mL	still substantial	comparable or even superior to aspirin	100 µg/mL

— US4804684A, “Symmetrical O-substituted dioximes of benzo-fused β-diketocyclo-alkylenes, the processes for their preparation and their application as drugs” (Panmedica S.A., priority 1986, dated 1989)
